This note sets out measurements from patent US12139508B2, “Steroid derivative regulators, method for preparing the same, and uses thereof” (JIANGSU HANSOH PHARMACEUTICAL GROUP CO., LTD., priority 2018, dated 2024).

The assay addresses GABA-A receptor. The assay is described as follows: 35S-TBPS binding assay (GABAA receptor binding ability test). More on the design: species or system Sprague-Dawley rat. The following applies: rat cerebral cortex cell membrane, 5 μM GABA, 2 nM 35S-TBPS; read-out: 35S-TBPS bindng test: IC50 on inhibiting the TBPS binding activity. As to the method:
1.2 Experimental Procedures 1.2.1 Extraction of Cerebral Cortex Cell Membrane:
1. The cerebral cortex of male Sprague-Dawley rat was isolated.
2. A pre-chilled 0.32 M sucrose solution (one tablet of protease inhibitor was added per 100 ml) was added to the cerebral cortex (the volume of sucrose solution was 10 times the volume of the cerebral cortex). The mixture was crushed with a 50 mL glass tissue homogenizer in batches and mixed well.
3. The mixture was centrifuged at 1500 g, 4° C. for 10 minutes, and the supernatant was collected.
4. The mixture was centrifuged at 20000 g, 4° C. for 30 minutes, and the supernatant was discarded.
5. The precipitate was resuspended with the pre-chilled phosphate buffer saline (PBS) (one tablet of protease inhibitor was added per 100 ml). An average of 4 ml of PBS was added per rat, and the mixture was mixed well by a glass tissue homogenizer.
6. The mixture was centrifuged at 10000 g, 4° C. for 10 minutes, and the supernatant was discarded.
7. Steps 5 and 6 were repeated three times.
8. Finally, the precipitate was resuspended with 4 volumes of PBS. The resulting solution was dispensed, frozen in liquid nitrogen, and stored at −80° C.
9. The protein concentration was measured by the bicinchoninic acid (BCA) method.
1.2.2 ^35S-TBPS Binding Assay
1. 230 μL of PBS was added to each well of a well plate with 1.1 ml volume.
2. 60 μL of the cerebral cortex cell membrane (5 μg/μL) solution was added to each well, and the mixture was mixed well.
3. The test compound (3 μL per well) was added, and the plate was incubated at 25° C. for 5 minutes. The DMSO concentration was 1%. The initial compound concentration was 1 μM, and a 3-fold dilution in gradient was carried out to obtain a total of 8 gradients and 2 replicates. 1% DMSO was used as a negative control, and 10 μM P026-2 was used as a positive control.
4. GABA was added at a final concentration of 5 μM, and incubated at 25° C. for 5 minutes. 1 mM GABA solution was formulated, and 1.5 μL of the solution was added to each well.
5. ^35S-TBPS was added at a final concentration of 2 nM. The concentration of isotope mother solution was 9.7 μM. After dilution with PBS for 100 times, 6 μL of the diluted isotope solution was added to each well.
6. The plate was incubated at 4° C. for 20 hours.
7. The FilterMate GF/C plate was pre-treated with 0.5% PEI, and incubated at 4° C. for 1 hour.
8. The FilterMate GF/C plate was washed with Universal Harvester twice, 50 ml PBS each time.
9. The reaction solution was transferred to the GF/C plate, and each well was washed 4 times with 900 μL of PBS.
10. The washed GF/C plate was placed at 55° C. and dried for 10 minutes.
11. 40 μL of scintillation solution was added to each well, and the CPM value was read with TopCount.
1.2.3 Experimental Data Processing Method:
In the experiment, the CPM (counts per minute) value was read with TopCount. According to the readings of the High control (DMSO) and the Low control ([…] of the positive compound) experimental groups, the […] inhibition was calculated based on the following formula: % Inhibition=100×(CPMHigh control−CPMSample)/(CPMHigh control−CPMLow control)
The IC50 of the compound was calculated according to the following 4-parameter nonlinear logic formula: Y=Bottom+(Top−Bottom)/(1+10^((Log IC50−X)*Hill Slope)),
wherein: • X represents the log of compound concentration, • Y represents the 0 Inhibition.
The effect of the compound of the present invention on the TBPS binding activity was determined by the above test, and the measured IC50 values are shown in Table 1.
Broadly, the IC50 is the concentration needed to halve the response being measured. With `C[C@@]1(O)CC[C@H]2[C@H](CC[C@@H]3[C@@H]2CC[C@@]2(C)[C@H]3[C@@H]3C[C@@H]3[C@@H]2C(=O)Cn2nc(C#N)cc2C#N)C1` [Example 127, 1-(2-((2R,4aS,4bR,6aS,7S,7aS,8aR,8bR,8cR,10aR)-2-Hydroxy-2,6a-dimethyloctadecahydrocyclopropa[4,5]cyclopenta[1,2-a]phenanthren-7-yl)-2-oxoethyl)-1H-pyrazole-3,5-dicarbonitrile], the IC50 turned out to be 6.1 nM. Consider `C[C@@]1(O)CC[C@H]2[C@H](CC[C@@H]3[C@@H]2CC[C@@]2(C)[C@H]3[C@@H]3C[C@@H]3[C@@H]2C(=O)CNc2ccc(F)cc2)C1` [Example 97, 2-((4-Fluorophenyl)amino)-1-((2R,4aS,4bR,6aS,7S,7aS,8aR,8bR,8cR,10aR)-2-hydroxy-2,6a-dimethyloctadecahydrocyclopropa[4,5]cyclopenta[1,2-a]phenanthren-7-yl)ethan-1-one], for which the IC50 was found to be 30.2 nM.

As to `C[C@@H]1C[C@H](C(=O)Cn2cc(Cl)cn2)[C@@]2(C)CC[C@H]3[C@@H](CC[C@@H]4C[C@](C)(O)CC[C@@H]43)[C@H]12` [Example 91, 2-(4-Chloro-1H-pyrazol-1-yl)-1-((3R,5R,8R,9R,10S,13S,14S,15R,17S)-3-hydroxy-3,13,15-trimethylhexadecahydro-1H-cyclopenta[a]phenanthren-17-yl)ethan-1-one], the IC50 worked out at 9.6 nM. `C[C@@]1(O)CC[C@H]2[C@H](CC[C@@H]3[C@@H]2CC[C@]2(C)[C@@H](C(=O)COCC4(C#N)CC4)CC[C@@H]32)C1` [Example 166, 1-((2-((3R,5R,8R,9R,10S,13S,14S,17S)-3-Hydroxy-3,13-dimethylhexadecahydro-1H-cyclopenta[a]phenanthren-17-yl)-2-oxoethoxy)methyl)cyclopropane-1-carbonitrile]: the IC50 came out at 38.4 nM.

As to `C[C@@H]1C[C@H](C(=O)CN2C(=O)CSC2=O)[C@@]2(C)CC[C@H]3[C@@H](CC[C@@H]4C[C@](C)(O)CC[C@@H]43)[C@H]12` [Example 136, 3-(2-((3R,5R,8R,9R,10S,13S,14S,15R,17S)-3-Hydroxy-3,13,15-trimethylhexadecahydro-1H-cyclopenta[a]phenanthren-17-yl)-2-oxoethyl)thiazolidine-2,4-dione], the IC50 came out at 26.5 nM. With `C[C@@H]1C[C@H](C(=O)Cn2cc(C(=O)N3CCC3)cn2)[C@@]2(C)CC[C@H]3[C@@H](CC[C@@H]4C[C@](C)(O)CC[C@@H]43)[C@H]12` [Example 133, 2-(4-(Azetidine-1-carbonyl)-1H-pyrazol-1-yl)-1-((3R,5R,8R,9R,10S,13S,14S,15R,17S)-3-hydroxy-3,13,15-trimethylhexadecahydro-1H-cyclopenta[a]phenanthren-17-yl)ethan-1-one], the IC50 is 17.8 nM.

As to `CC(=O)[C@H]1[C@H]2C[C@H]2[C@H]2[C@@H]3CC[C@@H]4C[C@](C)(O)CC[C@@H]4[C@H]3CC[C@@]21C` [Example 1, 1-((2R,4aS,4bR,6aS,7S,7aS,8aR,8bR,8cR,10aR)-2-Hydroxy-2,6a-dimethyloctadecahydrocyclopropa[4,5]cyclopenta[1,2-a]phenanthren-7-yl)ethan-1-one], the IC50 amounted to 15 nM. With `C[C@@]1(O)CC[C@H]2[C@H](CC[C@@H]3[C@@H]2CC[C@@]2(C)[C@H]3[C@@H]3C[C@@H]3[C@@H]2C(=O)Cn2nnc3cc(F)ccc32)C1` [Example 93A, 2-(5-Fluoro-1H-benzo[d][1,2,3]triazol-1-yl)-1-((2R,4aS,4bR,6aS,7S,7aS,8aR,8bR,8cR,10aR)-2-hydroxy-2,6a-dimethyloctadecahydrocyclopropa[4,5]cyclopenta[1,2-a]phenanthren-7-yl)ethan-1-one] the figure was 3 nM; with `C[C@@]1(O)CC[C@H]2[C@H](CC[C@@H]3[C@@H]2CC[C@@]2(C)[C@H]3[C@@H]3C[C@@H]3[C@@H]2C(=O)Cn2ncc3ccncc32)C1` [Example 42, 1-((2R,4aS,4bR,6aS,7S,7aS,8aR,8bR,8cR,10aR)-2-hydroxy-2,6a-dimethyloctadecahydrocyclopropa[4,5]cyclopenta[1,2-a]phenanthren-7-yl)-2-(1H-pyrazolo[3,4-c]pyridin-1-yl)ethan-1-one], 38.3 nM. As for `Cc1nn(CC(=O)[C@H]2[C@H]3C[C@H]3[C@H]3[C@@H]4CC[C@@H]5C[C@](C)(O)CC[C@@H]5[C@H]4CC[C@@]32C)cc1C#N` [Example 37A, 1-(2-((2R,4aS,4bR,6aS,7S,7aS,8aR,8bR,8cR,10aR)-2-Hydroxy-2,6a-dimethyloctadecahydrocyclopropa[4,5]cyclopenta[1,2-a]phenanthren-7-yl)-2-oxoethyl)-3-methyl-1H-pyrazole-4-carbonitrile], the IC50 is 15.4 nM. For `Cc1nnn(CC(=O)[C@H]2C[C@@H](C)[C@H]3[C@@H]4CC[C@@H]5C[C@](C)(O)CC[C@@H]5[C@H]4CC[C@@]32C)n1` [Example 62, 1-((3R,5R,8R,9R,10S,13S,14S,15R,17S)-3-Hydroxy-3,13,15-trimethylhexadecahydro-1H-cyclopenta[a]phenanthren-17-yl)-2-(5-methyl-2H-tetrazol-2-yl)ethan-1-one], the IC50 worked out at 5.4 nM. With `C[C@@]1(O)CC[C@H]2[C@H](CC[C@@H]3[C@@H]2CC[C@@]2(C)[C@H]3[C@@H]3C[C@@H]3[C@@H]2C(=O)Cn2cc(C(=O)N3CCC3)cn2)C1` [Example 102, 2-(4-(Azetidine-1-carbonyl)-1H-pyrazol-1-yl)-1-((2R,4aS,4bR,6aS,7S,7aS,8aR,8bR,8c R,10aR)-2-hydroxy-2,6a-dimethyloctadecahydrocyclopropa[4,5]cyclopenta[1,2-a]phenanthren-7-yl)ethan-1-one] the figure was 65 nM; with `C[C@@H]1C[C@H](C(=O)Cn2ccnn2)[C@@]2(C)CC[C@H]3[C@@H](CC[C@@H]4C[C@](C)(O)CC[C@@H]43)[C@H]12` [Example 132, 1-((3R,5R,8R,9R,10S,13S,14S,15R,17S)-3-Hydroxy-3,13,15-trimethylhexadecahydro-1H-cyclopenta[a]phenanthren-17-yl)-2-(1H-1,2,3-triazol-1-yl)ethan-1-one], 24.6 nM. With `C[C@@]1(O)CC[C@H]2[C@H](CC[C@@H]3[C@@H]2CC[C@@]2(C)[C@H]3[C@@H]3C[C@@H]3[C@@H]2C(=O)Cn2cc(-c3ncco3)cn2)C1` [Example 128, 1-((2R,4aS,4bR,6aS,7S,7aS,8aR,8bR,8cR,10aR)-2-Hydroxy-2,6a-dimethyloctadecahydrocyclopropa[4,5]cyclopenta[1,2-a]phenanthren-7-yl)-2-(4-(oxazol-2-yl)-1H-pyrazol-1-yl)ethan-1-one] the figure was 15.8 nM. Turning to `CCOC(=O)c1cnn(CC(=O)[C@H]2[C@H]3C[C@H]3[C@H]3[C@@H]4CC[C@@H]5C[C@](C)(O)CC[C@@H]5[C@H]4CC[C@@]32C)c1` [Example 51, Ethyl 1-(2-((2R,4aS,4bR,6aS,7S,7aS,8aR,8bR,8cR,10aR)-2-hydroxy-2,6a-dimethyloctadecahydrocyclopropa[4,5]cyclopenta[1,2-a]phenanthren-7-yl)-2-oxoethyl)-1H-pyrazole-4-carboxylate], the IC50 was 5 nM.
